Experimental data: patent US20240307545A1, “CONJUGATE OF SAPONIN, OLIGONUCLEOTIDE AND GALNAC” (priority 2021, published 2024)
Where two headings read alike, the source gives them in different places. [BNANC] = BNA^NC bridged nucleic acid nucleotide; {ThiolC6} = thiol C6 linker; d = 2'-deoxy (DNA)

What was measured:
[1] = test system: apoB; test: apoB mRNA expression in primary human hepatocytes (qPCR); format: cell-based; conditions: for IC50: primary human hepatocytes, read-out: IC50 apoB RNA levels
Description: (§1) Cryopreserved primary human hepatocytes (Cytes Biotechnologies S.L., Spain) were thawed in hepatocyte thawing media (Cytes Biotechnologies S.L., Spain). […] Cells were pre-cultured for 4-6 hrs at 37° C. allowing for cell attachment to cell culture plates before the start of treatment. Plating medium was replaced by 315 μl or 108 μl maintenance media (Cytes Biotechnologies S.L., Spain), after which conjugates were added from a 10× concentrated stock solution in PBS. Plates were incubated for 72 hr at 37° C. being harvested for gene expression and cell viability analysis.
as §1

[2] = test system: LDL-cholesterol; test: Serum LDL-cholesterol (LDL-C) analysis in C57BL/6J mice; format: in vivo
Description: (§2) • i. Dose administration and in-life phase. Per group, 8 C57BL/6J male mice for treatment groups (in Study A, 14 mice in vehicle control group), approximately 6-7 weeks at arrival and 8-9 weeks at dosing, were dosed. The compounds, formulated in PBS or PBS alone (vehicle) according to Table A5 and Table A6, were dosed at 5 ml/kg in the tail vain (intravenously, i.v.), with dose volumes corresponding to the individual bodyweights. Where applicable, trivalent (GalNAc)3-SO1861 (EMCH) was co-administered at 5 ml/kg in the tail vain (i.v.) right after the trivalent GalNAc-ApoB conjugate. Animals were weighed weekly and clinical observations were performed 2-3 times daily within the first 48 hrs, and at least once daily thereafter until study end. • ii. Sampling of serum, liver, and kidney tissue. […] At the relevant inter-study post-dose timepoints, 3 animals per timepoint per treatment group (6 animals in the vehicle control group in Study A) were sacrificed to collect terminal bleeds and collect relevant organs, such as liver and kidney tissues for further analyses. at end of study, the remaining 2 animals (4 in the control group in Study A) per group were sacrificed. One half of the liver and one kidney was frozen and used for tissue RNA analysis.
LDL-cholesterol was measured in mouse serum, using an LDL-cholesterol specific two-step AU480 assay kit, respectively, from Beckman Coulter, with a photometric measurement according to the manufacturer's instructions.

[3] = In vivo tolerability (clinical observations, body weight) in C57BL/6J mice; conditions: Study A; doses and regimens of Table A5, i.v.
Description: as §2

[4] = test system: apoB; test: ApoB expression analysis in liver tissue of C57BL/6J mice (qRT-PCR); format: in vivo; conditions: for reduction of apoB RNA levels (gene expression) in liver compared to vehicle / reduction of apoB expression in liver compared to vehicle: Study A; for reduction of apoB RNA levels (gene expression) in liver compared to vehicle: 24 hrs
Description: as §2
The mRNA was isolated from frozen liver tissue using TRIzol® Reagent (Thermo Scientific) according to the manufacturer's instruction. Conversion into cDNA was performed using iScript™ cDNA Synthesis Kit (BioRad). ApoB expression levels and levels of specific liver housekeeping genes were determined using quantitative real-time PCR assays (qRT-PCR) using iTaq™ Universal SYBR® Green Supermix (BioRad) and the Light Cycler 480 (Roche Diagnostics, Rotkreuz, Switzerland) with specific DNA primers, listed in Table A4 (Study A) and Table A7 (Study B), respectively. Analysis was done by the ΔCt method to determine apoB expression relative to 2 liver-specific housekeeping control mRNAs. Each analysis reaction was performed in triplicate.

[5] = test system: apoB; test: apoB gene silencing in Huh7 cells (qPCR); format: cell-based, human; conditions: hepatocytes with very low ASGPR1 expression (Huh7)
Description: Primary hepatocytes which highly express ASGPR1 (ASGPR1^high) and Huh7 hepatocyte cell line (low ASGPR1 expression) were treated with a concentration range of trivalent-GalNAc-ApoBBNA (TrivalentGalNAc-ApoBBNA), either in absence or presence of 300 nM trivalent-GalNAc-SO1861 (TrivalentGalNAc-SPT001) (FIGS. 20A and B).
In addition, the primary hepatocytes and the liver cells of cell line Huh7 were contacted with a concentration series of a saponin-oligonucleotide-ASGPR ligand conjugate, i.e. trivalent GalNAc conjugated with both SO1861 (DAR is 4, in a dendron with four SO1861 molecules) and ApoB BNA (SEQ ID NO: 2) ((GalNAc)3-dSPT4-ApoB (FIG. 20E), or TrivalentGalNAc-ApoBBNA-dendron(SO1861)4), and apoB mRNA expression was assessed (FIGS. 20A and B).
ApoB gene silencing in HepG2 (ASGPR1+) cells or Huh7 (ASGPR1^+/−) was determined.
RNA from cells was isolated and analysed according to standard protocols (Biorad). qPCR primers that were used are indicated in Table A2.
RNA from cells was isolated using TRI Reagent® Solution (Thermo Scientific) according to the manufacturer's instruction. Conversion into cDNA was performed using iScript™ cDNA Synthesis Kit (BioRad) using standard protocols. […]

[6] = Endosomal escape enhancing activity of saponin; conditions: compared with SO1861

## ApoB#02 BNA: BNA^NC antisense oligonucleotide 5′-GCattggtatTCA-3′ [SEQ ID NO: 12], fully phosphorothioated, 5′-Thiol C6 linker (GCATTGGTATTCA; sugars from the 5' end [BNANC]2 d8 [BNANC]3, all phosphorothioate, 5' {ThiolC6}, methylation of C not given here)
[1]; relative ApoB#02 BNA concentration, without transfection agent
  IC50: 400 nM
[1]; transfection with RNAi-MAX
  IC50: 8 nM
[2]; Study A, 2 mg/kg, 72 hrs
  reduction of serum LDL-C compared to vehicle: ~50%
[2]; Study A, 2 mg/kg, 336 hrs
  reduction of serum LDL-C compared to vehicle: ~40%
[2]; Study A, 0.1, 1, or 2 mg/kg, 24 hrs
  serum LDL-C levels compared to vehicle (in words): not noticeably reduced
[2]; Study B, 2 mg/kg, 72 hrs post-dose
  serum LDL-C level: 2 mg/dL
[3]
  tolerability (adverse findings, clinical observations): well tolerated
[4]; 0.1 mg/kg i.v.
  reduction of apoB RNA levels (gene expression) in liver compared to vehicle: not noticeably reduced
[4]; 1 mg/kg i.v.
  reduction of apoB RNA levels (gene expression) in liver compared to vehicle: ~15%
[4]; 2 mg/kg i.v.
  reduction of apoB RNA levels (gene expression) in liver compared to vehicle: ~21%
[4]; 2 mg/kg, 72 hrs
  reduction of apoB expression in liver compared to vehicle: 39%
[4]; 2 mg/kg, 336 hrs
  reduction of apoB expression in liver compared to vehicle: 30%
[4]; Study B, 2 mg/kg, 72 hrs
  apoB RNA levels (gene expression) in liver, % of vehicle control: 53%

## TrivalentGalNAc-ApoBBNA: conjugate of trivalent GalNAc and the ApoB antisense BNA oligonucleotide ApoBBNA (SEQ ID NO: 2); L or S linker not stated (GCCTCAGTCTGCTTCGCACC; BNA oligonucleotide conjugated to trivalent GalNAc, pattern not explicitly stated, further chemistry not given here)
[5]; low nM + trivalentGalNAc-SPT001
  response: apoB mRNA silencing: not responsive

## CC(=O)OC1C(C)OC(OC2C(C)OC(OC(=O)[C@]34CCC(C)(C)CC3C3=CCC5[C@@]6(C)CC[C@H](OC7OC(C(=O)O)C(O)C(OC8OCC(O)C(O)C8O)C7OC7OC(CO)C(O)C(O)C7O)[C@@](C)(C=O)C6CC[C@@]5(C)[C@]3(C)C[C@H]4O)C(OC3OC(C)C(OC4OCC(O)C(OC5OCC(O)C(O)C5O)C4O)C(O)C3O)C2O)C(O)C1OC1OCC(O)C(O)C1O (some centres unmarked) [SO1832]
[6]
  endosomal escape enhancing activity towards an oligonucleotide (or protein toxin) in the endosome: about equally active as SO1861

## (GalNAc)3-dSPT4-ApoB: trivalent GalNAc conjugated with a dendron with four SO1861 moieties and ApoB BNA (SEQ ID NO: 2) via trifunctional linker (GCCTCAGTCTGCTTCGCACC; BNA oligo conjugated to trivalent GalNAc and dendron of four SO1861 saponins, further chemistry not given here)
[1]; primary hepatocytes, concentration series
  apoB gene (mRNA) silencing potency, factor higher than the GalNAc-ApoB BNA conjugate lacking covalently linked saponin: ~100
[5]; low nM, conjugate alone
  response: apoB mRNA silencing: not responsive
